Experimental data taken from patent publication US5430058A, “Pharmaceutical compositions comprising hydroxamate derivatives for iron removal” (Yeda Research and Development Co. Ltd., priority 1993, dated 1995).
In brackets after ≈: the same amount, converted by molar mass. Where two headings read alike, the source gives them in different places.

Assays:
[1] = Relative iron(III) binding efficiency by competition with EDTA; type: physicochemical; settings: for rel. Fe binding (b): Table 2, relative to DFO = 1.16, 0.75 mM hydroxamate, 0.15 mM EDTA, 0.15 mM Fe3+ in aqueous methanol; for Pcoeff*Fe binding (a*b): product of relative partition coefficient and relative iron(III) binding; for Relative binding: Table 1, DFO = 100, competition with EDTA in aqueous MeOH
Experimental: c. The relative binding efficiencies of the reversed siderophores (0.75 mM reversed siderophore and 0.15 mM Fe^3+ in aqueous MeOH (MeOH-0.1N NaOAc) were incubated with EDTA (0.15 mM). After equilibration overnight, the fraction of siderophore- Fe^3+ complex present was determined at 430 nm.
(§1) The values for Pcoeff of free RSF ileun2 (the same as SF1ileu) and of leun2 and their respective iron(III) complexes were similar (not shown).

[2] = tested on: trophozoites of P. falciparum; assay: Antimalarial activity (Table 2), [3H]-hypoxanthine incorporation; type: cell-based, Plasmodium falciparum; settings: Plasmodium falciparum
Experimental: g. Bioassay of iron carrier antimalarial activity. The antimalarial activity was assayed by adding the compounds from concentrated stock solutions (in DMSO) to microcultures (24 wells, Costar) containing infected red cells (2.5% hematocrit and 2% parasitemia). The cultures were usually synchronized (4-7 hrs. windows) by incubation in 300 mM Ala, 10 mM TRIS-Cl in conjunction with gelatin flotation and used either at the trophozoite (1-2% parasitemia) or at the ring stage (4-6% parasitemia) of the erythrocyctic cycle. After the indicated time of incubation with drug and either previous to or after washing 3 times with 100 volumes growth medium, the cells were supplemented with 6 μCi of either [^3 H]-hypoxanthine or [^3 H]-Ileu (Amersham, England) per well and parasite growth assessed after 24-48 hours by harvesting the labelled cells onto glass-fiber filters (Tamar, Inc. Jerusalem) and counting of the radioactivity. […]

[3] = Partition between n-octanol and saline; type: physicochemical; settings: for rel. Pcoeff (a): Table 2, relative to L-val-n1 = 1.0; for logP: Table 1, free ligand, read-out: Partition coefficient (converted)
Experimental: e. Partition coefficients were obtained by overnight equilibration of the free reversed siderophores between equal volumes of n-octanol and saline. The concentrations of the ligands in each phase were determined by adding excess iron(III) and measuring the ferric complexes at 430 nm.
as §1

[4] = tested on: normal red cells; assay: Uptake of 59Fe-carrier complexes into normal red cells; type: cell-based, human
Experimental: (§2) k. Uptake of radioactive carrier-Fe complexes. DFO and the different SF derivatives were pre-complexed with iron by addition of concentrated stock solutions of 20 mg/ml carriers to ^59 FeCl3 (Amersham, England) in 0.5 ml of 150 mM NaCl, 10 mM Hepes at 3-5 molar excess of carrier for 1 hour at room temperature. To begin the flux, normal or parasitized red cells that had been washed 3 times in saline buffer and resuspended in the same buffer supplemented with 5% bovine serum albumin (BSA), 2.5 mM citrate, 2 mg/ml glucose were added to radioactive ^59 Fe-complexes at a final suspension of 20% hematocrit. After incubation at 37° C., 75 μl suspension was removed in duplicate aliquots for each time point, placed in plastic 15 ml test tube (Starstedt) and centrifuged 1 minute at 2,500 g. The supernatant was removed and the pellet immediately placed on ice. After all sampling was completed the pellets were washed twice in 15 ml of ice cold buffer containing 50 mM EDTA and lysed in distilled water. Radioactivity (Gamma emission, 700-1300 Kev) was counted and the cell number for each sample determined from hemoglobin absorption of the lysate at 410 nm.
Due to the fact that RSF's have markedly greater lipophilicity than DFO, they were expected to faster penetrate and therefore more effectively chelate intracellular iron after short exposure times. Penetration of RSF's into normal and infected red cells was estimated by monitoring uptake of the RSF's-^59 Fe(III) complexes into infected and uninfected cells and compared to DFO. In order to confirm actual uptake of Fe-RSF ileun2 rather than adsorption to the outer membrane, cells were thoroughly washed and lysates were subjected to 80,000g×20 min centrifugation. More than 90% of the total counts were found in the cytosol fraction (results not shown).
FIGS. 8a and 8b show uptake of Fe^59 -carrier complexes into normal and infected red cells. Uptake of ^59 -Fe-RSF (FIG. 8a) and ^59 Fe-DFO (FIG. 8b) into normal (open symbols) and infected (closed symbols) red cells (60% parasitemia, >90% trophozoites). The carriers were pre-complexed to ^59 FeCl3 at 4:1 ration in DMSO with 5 μM external FeCl3 (from methanolic stock solutions). The radioactive complexes were then added to 20% hematocrit cell suspensions and flux was measured. Specific activity was 485000 cpm/nmole and 369000 cpm/nmole for the RSF and DFO uptake experiments, respectively. Cell number was determined from hemoglobin absorption of lysate at 410 nm.

[5] = tested on: infected red cells; assay: Uptake of 59Fe-carrier complexes into infected red cells; type: cell-based, human erythrocytes infected with P. falciparum
Experimental: as §2
Penetration of RSF's into normal and infected red cells was estimated by monitoring uptake of the RSF's-^59 Fe(III) complexes into infected and uninfected cells and compared to DFO. In order to confirm actual uptake of Fe-RSF ileun2 rather than adsorption to the outer membrane, cells were thoroughly washed and lysates were subjected to 80,000g×20 min centrifugation.
The carriers were pre-complexed to ^59 FeCl3 at 4:1 ration in DMSO with 5 μM external FeCl3 (from methanolic stock solutions). The radioactive complexes were then added to 20% hematocrit cell suspensions and flux was measured. […] Cell number was determined from hemoglobin absorption of lysate at 410 nm.

[6] = Extraction of iron from aqueous FeCl3/citrate into chloroform; type: physicochemical; settings: 0.3 mM in chloroform vs 0.3 mM FeCl3, 0.3 mM citric acid, 40 mM TRIS, pH 6.9, overnight
Experimental: d. Extractions were performed by overnight equilibration of 0.3 mM chloroform solutions of reversed siderophore with aqueous solutions of 0.3 mM FeCl3, 0.3 mM citric acid, 40 mM TRIS, pH 6.9. The amount of iron taken up into the organic phase was determined by the absorption of the iron+complex at 430 nm. No iron uptake into chloroform solutions devoid of RSF was observed by ion chromatography.

[7] = tested on: trophozoites of P. falciparum, strain ItG2G1; assay: Antimalarial activity (Table 1), [3H]hypoxanthine incorporation; type: cell-based; settings: Plasmodium falciparum, 48 h
Experimental: f. Parasite cultures. The P. falciparum strains used in the experiments: ItG2G1 (Brazil, provided by Dr. L. H. Miller), D6 (W. African, provided by Dr. A. J. M. Oduola) FCR-3 (Gambian, provided by Dr. J. B. Jensen) and W2 (Indochina, provided by Dr. A. J. M. Oduola), were grown in culture flasks of human erythrocytes by a modified version of Trager and Jensen's method as described by Silfen et al. ((1988) Biochem. Pharmacol. 37: 4269-4276)).
g. Bioassay of iron carrier antimalarial activity. The antimalarial activity was assayed by adding the compounds from concentrated stock solutions (in DMSO) to microcultures (24 wells, Costar) containing infected red cells (2.5% hematocrit and 2% parasitemia). The cultures were usually synchronized (4-7 hrs. windows) by incubation in 300 mM Ala, 10 mM TRIS-Cl in conjunction with gelatin flotation and used either at the trophozoite (1-2% parasitemia) or at the ring stage (4-6% parasitemia) of the erythrocyctic cycle. After the indicated time of incubation with drug and either previous to or after washing 3 times with 100 volumes growth medium, the cells were supplemented with 6 μCi of either [^3 H]-hypoxanthine or [^3 H]-Ileu (Amersham, England) per well and parasite growth assessed after 24-48 hours by harvesting the labelled cells onto glass-fiber filters (Tamar, Inc. Jerusalem) and counting of the radioactivity.
The antimalarial activity of the different chelators was initially evaluated on cultures of trophozoites which were exposed for 24 hours to different concentrations of chelators. Following that period, [^3 H]-hypoxanthine or [^3 H]-Ileu were added and 24 hours later the parasitemia and incorporation of label into macromolecular material was determined.

[8] = amino acid side chain, Tanford/Segret's scale as given by Eisenberg 1984; cited from earlier work
[9] = trophozoites, 40 hours exposure, mean of 3-4 experiments, read-out: IC50 (c)

SMILES | rel. Fe binding (b) [1] | Pcoeff*Fe binding (a*b) [1] | IC50 ([2]; 40 h, read-out: IC50 (c)) [µM] | rel. Pcoeff (a) [3] | IC50 [2, 9] [µM] | Uptake kinetics compared with RSF-ileun2 [4] | Uptake kinetics compared with RSF-ileun2 [5] | rel. Fe binding (b) ([1]; listed as L-val n1) | Fe-binding affinity relative to DFO ([1]; percent that of DFO) [%] | Pcoeff*Fe binding (a*b) ([1]; listed as L-val of n1 subfamily) | IC50 ([2]; discussion of Table 2, unit inferred, read-out: IC50) [µM] | Extraction efficiency [6] | Relative binding [1] | IC50 [7] [µg/mL] | logP [3] | Hydrophobicity [8] | Pcoeff of free ligand vs iron(III) complex ([3]; not shown)
CC[C@@H](C)[C@@H](NC(=O)CCOCC(CC)(COCCC(=O)N[C@@H](C(=O)N(C)O)[C@H](C)CC)COCCC(=O)N[C@@H](C(=O)N(C)O)[C@H](C)CC)C(=O)N(C)O [(D--ileu) n=2] | 0.298 | 2.4 | 9 ± 3 | 8.2 |  |  |  |  |  |  |  |  |  |  |  |  | 
CC[C@H](C)[C@H](NC(=O)COCC(CC)(COCC(=O)N[C@H](C(=O)N(C)O)[C@@H](C)CC)COCC(=O)N[C@H](C(=O)N(C)O)[C@@H](C)CC)C(=O)N(C)O [(L--ileu) n=1] | 1.0 | 9.3 |  | 9.0 | 3 ± 1 |  |  |  |  |  |  |  |  |  |  |  | 
CCC(COCC(=O)N[C@@H](CC(C)C)C(=O)N(C)O)(COCC(=O)N[C@@H](CC(C)C)C(=O)N(C)O)COCC(=O)N[C@@H](CC(C)C)C(=O)N(C)O [(L--leu) n=1] | 0.23 | 3.86 |  | 17.0 | 5 ± 2 | Identical uptake kinetics | Identical uptake kinetics |  |  |  |  |  |  |  |  |  | 
CCC(COCC(=O)N[C@H](C(=O)N(C)O)C(C)C)(COCC(=O)N[C@H](C(=O)N(C)O)C(C)C)COCC(=O)N[C@H](C(=O)N(C)O)C(C)C [(L--val) n=1] | 1.0 | 1.0 |  | 1.0 | 4 ± 1 |  |  | 1 | 86 | 1 | 4 |  |  |  |  |  | 
CCC(COCCC(=O)N[C@H](C(=O)N(C)O)C(C)C)(COCCC(=O)N[C@H](C(=O)N(C)O)C(C)C)COCCC(=O)N[C@H](C(=O)N(C)O)C(C)C [(L--val) n=2] | 1.31 | 2.8 |  | 2.1 | 6 ± 2 |  |  |  |  |  |  |  |  |  |  |  | 
CCC(COCCC(=O)N[C@H](C)C(=O)N(C)O)(COCCC(=O)N[C@H](C)C(=O)N(C)O)COCCC(=O)N[C@H](C)C(=O)N(C)O [SF1--D--ala] | 1.25 | 0.37 | 70 ± 13 | 0.3 |  |  |  |  |  |  |  | 88 | 108 | 45 (≈ 69.2 µM) | -0.276 | 1.0 | 
CCC(COCCC(=O)N[C@@H](C)C(=O)N(C)O)(COCCC(=O)N[C@@H](C)C(=O)N(C)O)COCCC(=O)N[C@@H](C)C(=O)N(C)O [SF1--L--ala] | 1.25 | 0.37 | 62 ± 10 | 0.3 |  |  |  |  |  |  |  | 88 | 108 | 40 (≈ 61.5 µM) | -0.276 | 1.0 | 
CCC(COCCC(=O)N[C@@H](CC(C)C)C(=O)N(C)O)(COCCC(=O)N[C@@H](CC(C)C)C(=O)N(C)O)COCCC(=O)N[C@@H](CC(C)C)C(=O)N(C)O [SF1--L--leu] | 0.12 | 0.9 | 22 ± 4 | 7.4 |  |  |  |  |  |  |  | 35 | 10 | 17 (≈ 21.9 µM) | 1.1 | 3.5 | similar
CCC(COCCC(=O)N1CCC[C@H]1C(=O)N(C)O)(COCCC(=O)N1CCC[C@H]1C(=O)N(C)O)COCCC(=O)N1CCC[C@H]1C(=O)N(C)O [SFI--pro] | 0.16 | 0.06 | > 100 | 0.4 |  |  |  |  |  |  |  | 38 | 14 | > 100 | -0.187 | 1.5 | 
